Test results published in BigSolDB 2.1.

CC(=O)O[C@H]1NC(=O)[C@@H]1[C@@H](C)O[Si](C)(C)C(C)(C)C
solubility (mole fraction)
Details | 293.15 K | 298.15 K | 303.15 K | 308.15 K | 313.15 K | 318.15 K | 323.15 K | 328.15 K | 333.15 K
in THF | 0.238 | 0.242 | 0.251 | 0.264 | 0.278 | 0.3 | 0.323 | 0.342 | 0.368
in acetone | 0.147 | 0.166 | 0.186 | 0.203 | 0.218 | 0.233 | 0.244 | 0.254 | 0.259
in acetonitrile | 0.0493 | 0.0629 | 0.0792 | 0.0963 | 0.114 | 0.132 | 0.15 | 0.166 | 0.184
in chloroform | 0.258 | 0.266 | 0.276 | 0.291 | 0.308 | 0.325 | 0.347 | 0.371 | 0.403
in cyclohexane | 0.0028 | 0.00408 | 0.00582 | 0.00838 | 0.0116 | 0.0163 | 0.0223 | 0.0306 | 0.0413
in ethanol | 0.0492 | 0.0601 | 0.072 | 0.0859 | 0.104 | 0.121 | 0.145 | 0.17 | 0.2
in ethyl acetate | 0.159 | 0.179 | 0.198 | 0.216 | 0.24 | 0.264 | 0.294 | 0.326 | 0.356
in methanol | 0.0593 | 0.069 | 0.0809 | 0.0959 | 0.113 | 0.134 | 0.161 | 0.193 | 0.233
in n-butyl acetate | 0.13 | 0.145 | 0.163 | 0.18 | 0.199 | 0.221 | 0.251 | 0.288 | 0.326
in n-hexane | 0.00287 | 0.00411 | 0.00577 | 0.00813 | 0.0116 | 0.0161 | 0.022 | 0.0305 | 0.0422
in toluene | 0.0796 | 0.096 | 0.116 | 0.141 | 0.163 | 0.186 | 0.209 | 0.238 | 0.265
